Experimental data: patent US20110182982A1, “LIPOSOME TREATMENT OF VIRAL INFECTIONS” (University of Oxford, priority 2006, published 2011)

Columns and labels:
[1] = pH sensitivity of DCPP liposomes (calcein leakage); type: physicochemical; conditions: 1 mM encapsulated, pH 5.0-7.4, vs calcein only liposomes
Protocol: DCPP liposomes encapsulating 1-mM DNJ, NB-DNJ, or NN-DNJ in 80-mM calcein buffer were compared with empty (calcein only) liposomes to determine the effects of the alkyl chain of NB-DNJ and NN-DNJ on the pH-sensitivity. 10 μl of calcein-loaded DCPP liposomes (final phospholipid concentration, 5 μM) was added to 2 ml of MES-buffered saline at various pH values ranging from 5.0-7.4, and left to incubate with shaking 15 min at 37° C. Following incubation, calcein fluorescence was measured before and after the addition of Triton to a final concentration of 0.1%. Fluorescence intensities obtained at acidic pH values were corrected for the slight effect of pH on calcein fluorescence. The percentage of calcein release at each pH was calculated using the formula: % leakage=((in−I0)/(I100−I0))×100, where I0 is the fluorescence at neutral pH, In is the corrected intensity at acidic pH before the addition of Triton, and I100 is the total dequenched calcein at neutral pH.

CHO cells = assay: Liposome uptake (Rh-PE) and intracellular calcein dequenching; type: cell-based, Chinese hamster
Protocol: The effects of different DNJ compounds on the cellular uptake and intracellular release, when encapsulated inside DCPP liposomes, was determined by diluting compounds in 80-mM calcein and incorporating Rh-PE in liposome membranes as previously described, with the final liposome composition being DOPE:CHEMS:PEG-PE:Rh-PE (DCPP-Rh, 6:4:0.3:0.1) Liposomes encapsulating calcein alone, 10-μM DNJ, 1-mM DNJ, 10-μM NB-DNJ, 1-mM NB-DNJ, 10-μM NN-DNJ, or 1-mM NN-DNJ, were incubated with CHO cells for 45 min before liposomes were removed and cells were washed twice in 1×PBS. Cells were then analyzed in a fluorometer to measure calcein dequenching (λex=490 and λem=520 nm) and rhodamine fluorescence (λex=584 and λem=612 nm). Data represent the mean±S.D. obtained from triplicates of four independent experiments, where mean rhodamine fluorescence values reflect the binding and uptake of liposomes and the mean calcein fluorescence reflects the intracellular dequenching of the dye (i.e. dye released from liposomes into intracellular compartments). Results are expressed as the percent fluorescence measured following incubation with DNJ-containing liposomes as compared to the calcein/PBS-only liposome control (=100% on the x axis).
The calculated ratio of calcein to rhodamine fluorescence is taken as a measure of the amount of aqueous marker released per cell-associated liposome, and represents the efficiency of intracellular delivery.

Hepatitis C virus = conditions: alone or in combination with ribavirin; cited from earlier work
[2] = encapsulated into DCPP liposomes
[3] = 10 μM encapsulated in DCPP liposomes
[4] = 1 mM encapsulated in DCPP liposomes
[5] = encapsulated in DCPP-Rh liposomes

| pH sensitivity / stability of DCPP liposomes [1] | Molecule | Efficiency (calcein/rhodamine, AU) (CHO cells; [3]) [AU] | Efficiency (calcein/rhodamine, AU) (CHO cells; [4]) [AU] | cellular uptake of liposomes (CHO cells; [5]) | effect on calcein dequenching (intracellular release) (CHO cells; [5]) | patients in whom therapy is effective (Hepatitis C virus) | change of ER delivery of the peptide [2] |
| --- | --- | --- | --- | --- | --- | --- | --- |
| significant decrease in pH sensitivity | CCCCCCCCCN1C[C@H](O)[C@@H](O)[C@H](O)[C@H]1CO [NN-DNJ, N-nonyl deoxynojirimycin] | 4.4 ± 1.3 | 3.2 ± 1.1 | increase in cellular uptake | no effect | – | – |
| – | interferon | – | – | – | – | up to 80% | – |
| – | CSCC[C@H](NC(=O)[C@@H](NC(=O)CNC(=O)[C@H](CC(=O)O)NC(=O)[C@H](CCSC)NC(=O)[C@@H](N)Cc1ccc(O)cc1)[C@@H](C)O)C(=O)N[C@@H](CO)C(=O)N[C@@H](CCC(N)=O)C(=O)N[C@H](C(=O)O)C(C)C [YMDGTMSQV] | – | – | – | – | – | reduces the ER delivery of the peptide by an order of magnitude |
| no difference in stability | OC[C@H]1NC[C@H](O)[C@@H](O)[C@@H]1O [DNJ, deoxynojirimycin] | 10.4 ± 1.8 | 10.8 ± 2.0 | – | no effect | – | – |
